The values below come from ChEMBL document CHEMBL3988442, “University of Dundee, Small-Polar-MMV Screening Library” (2021).

As a reminder, the pIC50 is the negative decadic logarithm of the IC50, by convention in mol/L. Read a low pIC50 as a large IC50. By IC50 is commonly meant the point on the concentration scale where inhibition reaches its midpoint. Read a low IC50 as higher potency.

For the assay, the system named is Plasmodium falciparum. As to the kind of experiment: Calibr Malaria Delayed Death Assay SOP. Type of assay: functional, organism-based. The conditions noted are these: for IC50: Plasmodium falciparum.

As to `Brc1cccc(C2(CNCc3cc[nH]c3)CCOCC2)c1`, the pIC50 is listed as 6.135 and half-maximal inhibition (IC50) required 829 nM.

On to `CCC(CN1CCCCC1)NC(=O)C1(c2ccc(F)cc2)CC1.O=C(O)CC(O)(CC(=O)O)C(=O)O` (configuration not stated), for which the pIC50 is 6.19 and inhibition was half-maximal at 709 nM (IC50).

In turn, `COc1cccc(CNCc2cccc(Cl)c2)c1O` gave a pIC50 of 6.064 and an IC50 of 914 nM.

`CCc1ccc(CN(CCN(C)C)Cc2ccc(C)s2)nc1`: the pIC50 was found to be 6.04 and the IC50 was 965 nM.

`CCN1CCC2(CC1)CC(NCc1ccncc1)c1ccccc1O2.O=C(O)C(F)(F)F.O=C(O)C(F)(F)F.O=C(O)C(F)(F)F` (configuration not stated) showed a pIC50 of 6.198 and an IC50 of 579 nM.

In turn, `Cc1ccc(-c2ccccc2CC2(C(=O)NC(C)C)CCCNC2)cc1` (configuration not stated) gave a pIC50 of 6.259 and an IC50 of 491 nM.

In turn, `OCCN1CCC(CNCc2ccccc2OC(F)(F)F)CC1` had a pIC50 of 6.066 and an IC50 of 770 nM.

On to `Cc1cc(NC(=O)NC2CCN(C(C)C)CC2)c2ncccc2c1`, for which the pIC50 stood at 5.97 and the concentration for half-maximal inhibition (IC50) was 796 nM.

`Cn1nc(CN2CCCCC(N)C2)c2c(Cl)cccc21` (configuration not stated) had a pIC50 of 6.151 and an IC50 of 800 nM.

Turning to `CCN1CCC2(CC1)CC(NCc1cccc(C)n1)c1ccccc1O2.O=C(O)C(F)(F)F.O=C(O)C(F)(F)F.O=C(O)C(F)(F)F` (configuration not stated), the pIC50 worked out at 6.22 and half-maximal inhibition (IC50) was put at 780 nM.

`COc1ccc(CN2CC[C@@H](O)[C@@H]2Cc2ccccc2)cc1.O=C(O)C(F)(F)F` showed a pIC50 of 5.901 and an IC50 of 1540 nM.

As to `Cc1noc(C)c1CN1C[C@H]2CN(Cc3cccc(F)c3)C[C@H]2C1.O=C(O)C(F)(F)F.O=C(O)C(F)(F)F`, the pIC50 was 5.762 and 1220 nM corresponded to half-maximal inhibition (IC50).

Take `Cn1ccnc1C(O)(CCNCc1ccc(Cl)o1)C(F)(F)F` (configuration not stated): the pIC50 was 5.844 and inhibition was half-maximal at 1740 nM (IC50).

Consider `CCOc1ccc(Br)cc1C1CCCCN1.Cl` (configuration not stated), for which the pIC50 amounted to 6.053 and the IC50 is 737 nM.

Turning to `CCc1ccc2nc(NCCCN(CCO)CCO)cc(C)c2c1`, the pIC50 is given as 6.107 and the IC50 is 809 nM.

The compound `Clc1cccc2c3c([nH]c12)CCN(Cc1cc2n(n1)CCCNC2)C3` gave a pIC50 of 6.194 and an IC50 of 965 nM.

For the compound `Cc1c(C)n(CC(O)CN2CCN(CCO)CC2)c2c(Cl)cccc12.Cl` (configuration not stated), the pIC50 is on record as 6.075 and the IC50 was 950 nM.

Consider `Cc1cc(Br)cnc1NCCN1CCC(N(C)C)CC1`, for which the pIC50 worked out at 6.294 and it took 472 nM to reach half-maximal inhibition (IC50).

`CCN1CCCC(CNC(=O)C2(c3cc(C)cc(C)c3)CCC2)C1` (configuration not stated) gave a pIC50 of 6.008 and an IC50 of 1510 nM.

In turn, `CC(O)CN1CCC(CN(C)Cc2cc(F)cc3cccnc23)CC1` (configuration not stated) showed a pIC50 of 5.98 and an IC50 of 1120 nM.

`Fc1ccc(Sc2ccccc2CNC2=NCCN2)cc1.I` gave a pIC50 of 5.875 and an IC50 of 1210 nM.

With `Cc1cc(Cl)ccc1S(=O)(=O)NCC(C)N1CCN(C)CC1` (configuration not stated), the pIC50 is 6.144 and the IC50 is 444 nM.

In the case of `CCCOc1ccccc1CN[C@@H]1CCC[C@H]1Cc1cc(C)no1.O=C(O)CC(O)(CC(=O)O)C(=O)O`, the pIC50 came out at 5.985 and 1230 nM corresponded to half-maximal inhibition (IC50).

For `Cc1ccccc1N1CCCN(CC2(O)CCCNC2)CC1` (configuration not stated), the pIC50 was 6.443 and the IC50 is 314 nM.

The compound `CC(C)[C@H](CO)Nc1nccc(-c2c[nH]nc2-c2ccncc2)n1` gave a pIC50 of 5.945 and an IC50 of 1130 nM.

`COc1ccc(NC(=O)c2ccc(-n3ncc(C#N)c3N)cc2)cn1` had a pIC50 of 5.946 and an IC50 of 1110 nM.

In turn, `Cl.NCC1(c2cccc(Br)c2)CCOCC1` had a pIC50 of 6.127 and an IC50 of 705 nM.

Compound `O=C(CN1CCCC(c2ccn[nH]2)C1)Nc1nc2c(s1)CCCC2` (configuration not stated) gave a pIC50 of 6.624 and an IC50 of 248 nM.

`Cc1ccc(OC2(C(=O)N(C)Cc3ccoc3)CCNCC2)cc1`: the pIC50 came to 6.094 and half-maximal inhibition (IC50) was put at 701 nM.

As for `Cl.Fc1cccc(F)c1Cn1c(C2CCCNC2)cc2cccnc21` (configuration not stated), the pIC50 worked out at 6.143 and half-maximal inhibition (IC50) required 1050 nM.

As to `O=C(Nc1ccc(OC2CCCC2)cc1)C1CCCN1c1nccs1` (configuration not stated), the pIC50 is recorded as 7.074 and the IC50 was 79.3 nM.

`CCC[C@H]1CN(c2nc(CO)cs2)C[C@@H]1NC(=O)C1(COC)CC1` gave a pIC50 of 5.825 and an IC50 of 1600 nM.

`COc1ccc(-c2c(C)nn3c(=N)c(C#N)n[nH]c23)cc1OC`: the pIC50 is 6.297 and it took 538 nM to reach half-maximal inhibition (IC50).

On to `CC(=O)N(c1ccc(C)cc1)c1nc(CN2CCCC(C)C2)cs1` (configuration not stated), for which the pIC50 is listed as 5.762 and it took 1610 nM to reach half-maximal inhibition (IC50).

`Clc1cccc(C(NCc2ncc[nH]2)c2ccccn2)c1` (configuration not stated) had a pIC50 of 6.581 and an IC50 of 225 nM.

With `CN1CCC(N(C)C[C@H]2CC[C@@H](Cc3ccc4occc4c3)O2)CC1`, the pIC50 turned out to be 6.011 and the IC50 was 993 nM.

`Cc1ccc(CN2CCC3(CC2)CCN(Cc2ccoc2)CC3)cc1.O=C(O)C(F)(F)F.O=C(O)C(F)(F)F`: the pIC50 worked out at 6.821 and the midpoint of inhibition, the IC50, lay at 202 nM.

Regarding `CN(C)CCn1nc(C2CCN(Cc3ccccc3)C2)c2cccnc21` (configuration not stated), the pIC50 came to 5.827 and the IC50 is 2240 nM.

For `COc1ccc(CN2CCNC(=O)CC2)cc1SC(F)(F)F`, the pIC50 was 6.078 and the IC50 is 754 nM.

In turn, `COc1ccccc1C(C)(C)NCc1ccc(C)o1` had a pIC50 of 5.785 and an IC50 of 1220 nM.

In turn, `COc1ccccc1CCN1CCCC(CN(C)Cc2ccc(C)o2)C1` (configuration not stated) gave a pIC50 of 5.915 and an IC50 of 1030 nM.

On to `COc1cccc(Cn2c(C3CCNCC3)cc3cccnc32)c1.Cl`, for which the pIC50 is on record as 6.096 and the IC50 is 931 nM.

`COc1cccc([C@H]2CN(C(C)=O)[C@@H]3CCN(Cc4ccsc4)C[C@H]23)c1.Cl` showed a pIC50 of 5.897 and an IC50 of 1070 nM.

`CC(C)NC(=O)C1(Cc2ccccc2-c2cccs2)CCNC1` (configuration not stated): the pIC50 worked out at 6.06 and half-maximal inhibition (IC50) was put at 982 nM.

With `CC(NCC1CCN(CCO)CC1)c1ccc(Cl)cc1` (configuration not stated), the pIC50 was 6.133 and the midpoint of inhibition, the IC50, lay at 671 nM.

The compound `CC(C)N(C)Cc1cnc2n1CCN(C(=O)NC1CCCC1)C2.O=C(O)C(F)(F)F` gave a pIC50 of 6.607 and an IC50 of 275 nM.

`Oc1ccc(Cl)cc1CNCc1ccccc1C(F)(F)F` showed a pIC50 of 6.047 and an IC50 of 1080 nM.

Regarding `c1cc(-c2n[nH]cc2-c2ccnc(N3CCCC3)n2)ccn1`, the pIC50 is 7.446 and the IC50 is 30.5 nM.

`NC1CCCCN(Cc2ccccc2CS(=O)(=O)c2ccccc2)C1` (configuration not stated) showed a pIC50 of 6.25 and an IC50 of 568 nM.

As for `COc1c(C)cnc(CN2CCC(N(C)C(C)C(N)=O)CC2)c1C` (configuration not stated), the pIC50 is given as 6.018 and the IC50 was 876 nM.

Consider `CCC(NCc1ccccc1C)c1ccccc1OCC(=O)NC` (configuration not stated), for which the pIC50 is reported as 6.158 and the IC50 is 731 nM.

`CCN1CC(c2ccccc2)CC2(CCN(Cc3ncc[nH]3)CC2)C1` (configuration not stated): the pIC50 is listed as 6.147 and the IC50 was 799 nM.

On to `c1cnnc(N2CCCC2CNc2ncnc3sccc23)c1` (configuration not stated), for which the pIC50 is recorded as 5.797 and the IC50 is 1260 nM.

For the compound `CN1CC[C@H](N(Cc2ccccc2)CC2CC2)C[C@H](O)C1`, the pIC50 is 5.964 and the IC50 was 1570 nM.

For `OC[C@@H]1CCCN1c1nccc(-c2c[nH]nc2-c2ccncc2)n1`, the pIC50 is 6.195 and 764 nM corresponded to half-maximal inhibition (IC50).

For `Fc1ccc(CN2CCC3(CC2)CCN(Cc2nccs2)CC3)cc1.O=C(O)C(F)(F)F.O=C(O)C(F)(F)F`, the pIC50 is reported as 6.206 and the IC50 was 708 nM.

Take `CN1CCn2c(-c3cccc(F)c3)cnc2C12CCN(CC1CC1)CC2.O=C(O)C(F)(F)F.O=C(O)C(F)(F)F.O=C(O)C(F)(F)F`: the pIC50 was 6.083 and the IC50 was 1100 nM.

For the compound `CCCOc1ccc2ccccc2c1CN1CC[C@@]2(O)CCNC[C@H]2C1`, the negative logarithm of the IC50 (pIC50) amounted to 6.043 and the IC50 was 924 nM.

`c1cc(-c2n[nH]cc2-c2ccnc(N3CCCCCC3)n2)ccn1` showed a pIC50 of 8.34 and a concentration for half-maximal inhibition (IC50) of 4.12 nM.

`O=C(Nc1nccs1)C1CCCN1Cc1ccccn1` (configuration not stated): the pIC50 is on record as 6.607 and 229 nM corresponded to half-maximal inhibition (IC50).

The compound `COc1cccc(CNCc2ccc(F)cc2Cl)c1O` showed a pIC50 of 6.118 and an IC50 of 712 nM.

In turn, `Cn1cc(CN2CCCC(CCc3ccc(F)cc3F)C2)cn1` (configuration not stated) gave a pIC50 of 5.983 and an IC50 of 992 nM.

With `CN(CCO)CC1COCCN1C(=O)C1(c2cccs2)CCCC1.O=CO` (configuration not stated), the pIC50 is recorded as 6.007 and the IC50 is 573 nM.

In turn, `CC(C)Oc1ncnc2c1CCN(Cc1ccco1)CC2.O=C(O)C(F)(F)F` had a pIC50 of 6.106 and an IC50 of 1020 nM.

With `Cc1cccc(C)c1Nc1noc2c1CN(C(=O)c1ccn(C)n1)CC2`, the pIC50 is on record as 6.694 and it took 206 nM to reach half-maximal inhibition (IC50).

In turn, `Cc1n[nH]cc1CNC1(c2ccc(F)cc2)CCCC1` gave a pIC50 of 6.295 and an IC50 of 584 nM.

`Cc1cc2c(cc1CN1CCCCC1CCn1ccnc1C)OCO2` (configuration not stated): the pIC50 is 6.025 and the IC50 is 1020 nM.

The compound `O=C(NC1CCN(CC2CCCC2)C1)N1CCC(OCC2CC2)CC1` (configuration not stated) gave a pIC50 of 5.978 and an IC50 of 966 nM.

In turn, `CCN1CCN(c2ccc(F)cc2C(C)NCc2ccccn2)CC1` (configuration not stated) had a pIC50 of 6.099 and an IC50 of 651 nM.

Compound `CN(CCCO)Cc1cc(Cl)ccc1OCC(O)CN1CCCCCC1` (configuration not stated) gave a pIC50 of 6.2 and an IC50 of 738 nM.

The compound `COc1ccnc(CN2CCCC(CCc3ccccc3)C2)c1OC` (configuration not stated) showed a pIC50 of 5.985 and an IC50 of 1030 nM.
